The numbers were not newly measured in patent US20230321062A1, “COMBINATION THERAPIES” (Mirati Therapeutics, Inc., priority 2020, published 2023), which cites them from elsewhere.

Read-outs that look alike come from different tables or passages of the source. Square brackets hold non-standard residues; d marks the D form. Peptide text beside a SMILES is read from it. * marks the point of attachment. Dolaproine = CO[C@@H]([C@@H]1CCCN1)[C@@H](C)C(=O)O; Dil = CC[C@H](C)[C@H](NC)[C@@H](CC(=O)O)OC; X1 = C[C@@H](N*)[C@@H](O)c1ccccc1; NMeV = CN[C@H](C(=O)O)C(C)C

The conditions of data set [1]: cited from earlier work; for steady-state concentrations reached after: 1.25 mg/kg Q3W regimen; for exposure (AUC) in mild, moderate or severe renal impairment compared to normal renal function: 1.25 mg/kg enfortumab; for elimination half-life / mean clearance (CL): after enfortumab dosing; for mean clearance (CL): patients.
For data set [2], the system named is Urothelial Carcinoma. Conditions: EV-201; cited from earlier work.
Data set [3] relates to Urothelial Carcinoma. Conditions: cited from earlier work.
The target in another data set is T1, Nectin-4 (Homo sapiens, UniProt Q96NY8).
T1 construct: host or cells: cells that express Nectin-4
T1 sequence (Q96NY8 32-510): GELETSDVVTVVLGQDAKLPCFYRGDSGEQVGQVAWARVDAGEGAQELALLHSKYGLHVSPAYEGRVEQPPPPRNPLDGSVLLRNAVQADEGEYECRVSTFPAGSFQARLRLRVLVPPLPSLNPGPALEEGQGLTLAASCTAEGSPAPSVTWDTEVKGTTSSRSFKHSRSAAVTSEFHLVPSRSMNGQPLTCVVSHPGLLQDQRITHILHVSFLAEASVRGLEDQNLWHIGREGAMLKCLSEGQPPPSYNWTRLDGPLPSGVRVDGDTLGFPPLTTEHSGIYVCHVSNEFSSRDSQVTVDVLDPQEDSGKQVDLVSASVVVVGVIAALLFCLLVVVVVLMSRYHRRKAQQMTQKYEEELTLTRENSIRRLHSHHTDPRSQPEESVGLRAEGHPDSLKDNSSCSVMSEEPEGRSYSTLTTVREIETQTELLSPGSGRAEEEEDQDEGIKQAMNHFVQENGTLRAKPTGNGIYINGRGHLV
Conditions: cited from earlier work.

For data set [4] the following is noted: cited from earlier work.
In data set [5] the test system is Urothelial Carcinoma. Conditions: cited from earlier work. The source holds these as a separate data set.
Data set [6] concerns Urothelial Carcinoma. The conditions noted are these: cited from earlier work. The source holds these as a separate data set.
The mark [7] stands for this setting: KEYNOTE-052, overall population.
Setting [8] is: KEYNOTE-052, patients with CPS ≥10.

For `CC[C@H](C)[C@@H]([C@@H](CC(=O)N1CCC[C@H]1[C@H](OC)[C@@H](C)C(=O)N[C@H](C)[C@@H](O)c1ccccc1)OC)N(C)C(=O)[C@@H](NC(=O)[C@@H](NC)C(C)C)C(C)C` [MMAE, monomethyl auristatin E] (H-[NMeV]V[Dil][Dolaproine]-X1), in data set [1], the “steady-state concentrations reached after” value was 1 treatment cycle; the “exposure (AUC) in mild, moderate or severe renal impairment compared to normal renal function” value is recorded as “No significant differences”; the elimination half-life was 57.6 h; the “mean clearance (CL)” value is 2.7 L/h. Moreover, in data set [1] (in vivo), the “accumulation following repeat administration of enfortumab” value was “minimal accumulation” and the “time until which plasma concentrations increased after enfortumab dosing” value is on record as about 2 days. Also, in data set [1] (population PK, n=31), the “AUC increase in patients with mild hepatic impairment compared to normal hepatic function” value is reported as 48%.
“enfortumab: Nectin-4 directed ADC: fully human anti-Nectin-4 IgG1 kappa antibody (AGS-22C3) conjugated to MMAE via protease-cleavable maleimidocaproyl valine-citrulline linker”: in data set [1], the “steady-state concentrations reached after” value is 1 treatment cycle; the “exposure (AUC) in mild, moderate or severe renal impairment compared to normal renal function” value is “No significant differences”; the elimination half-life is 81.6 h; the “mean clearance (CL)” value is recorded as 0.10 L/h. For the same compound, the “dose proportionality of PK” value in data set [1] (0.5 to 1.25 mg/kg, days 1, 8, 15 of 28-day cycle) is given as “linear dose-proportional PK”. In data set [1] (following administration of enfortumab), the “estimated mean volume of distribution at steady state (Vss)” value was 11 L. Also, the “accumulation following repeat administration of enfortumab” value in data set [1] (in vivo) is on record as “minimal accumulation”. For the same compound, the “time of peak concentrations” value in data set [1] (intravenous infusion) was “end of infusion”. Further, the “differences in pharmacokinetics based on age, sex, or race/ethnicity” value in data set [1] (population PK) was “no clinically significant differences”. Moreover, in the data set with Urothelial Carcinoma [2], the complete response rate was 12%, the “median DOR” value was 7.6 months, the median overall survival is 11.7 months and the “overall ORR as confirmed by central review” value (from here on “overall ORR as confirmed”) is reported as 44%. Further, in the data set with Urothelial Carcinoma [3] (EV-103 (pembrolizumab and enfortumab used in combination)), the “overall ORR as confirmed” value was 73%. Moreover, the “median DOR” value in the data set on Urothelial Carcinoma [3] (EV-103, median follow-up 10.4 months) is on record as “not reached”. In the data set on Urothelial Carcinoma [3] (EV-103), the “12-month overall survival rate” value is 82%, the complete response rate is listed as 16% and the median overall survival entry was “not reached”. The “affinity of binding to cells that express Nectin-4” value in the data set with Nectin-4 is recorded as “high affinity”.
As for “pembrolizumab: humanized monoclonal IgG4 kappa antibody that blocks the interaction between PD-1 and its ligands, PD-L1 and PD-L2”, in data set [4] (2 to 10 mg/kg Q3W), the “steady-state exposure versus dose” value is listed as “increased dose proportionally”. Besides, the systemic accumulation entry in data set [4] (Q3W regimen) is “approximately 2.1 fold”. Further, the “geometric mean clearance (CL)” value in data set [4] (population PK, 2993 patients with various cancers) is 195 mL/day. Also, the “geometric mean volume of distribution at steady state (Vss)” value in data set [4] (population PK) is recorded as 6.0 L. Besides, in the data set on Urothelial Carcinoma [5] (KEYNOTE-045, all subgroups examined), the “OS versus chemotherapy in subgroups” value is reported as “OS benefit over chemotherapy”. In addition, the “ORR as confirmed by central review” value in the data set with Urothelial Carcinoma [5] (KEYNOTE-045, patients with CPS≥10) is recorded as 20%; in the data set on Urothelial Carcinoma [6] (setting [8]) it was 47%. The “overall ORR as confirmed” value in the data set with Urothelial Carcinoma [5] (KEYNOTE-045, pembrolizumab group) was 21%; in the data set on Urothelial Carcinoma [6] (setting [7]), 29%. Also, the “median DOR” value with Urothelial Carcinoma [5] (KEYNOTE-045) is “not reached”; in the data set with Urothelial Carcinoma [6] (setting [7]), 30.1 months; in the data set with Urothelial Carcinoma [6] (setting [8]), “not reached”. Further, the median overall survival with Urothelial Carcinoma [5] (KEYNOTE-045) is given as 10.1 months; with Urothelial Carcinoma [6] (KEYNOTE-052, overall), 11.3 months; in the data set with Urothelial Carcinoma [6] (setting [8]) it was 18.5 months.
